In PubChem BioAssay AID330 (DTP/NCI, 2004):
“And” between values parts separate entries of the source, which are not always exact repeats. Equal values may be shown once. Toxic doses and inconclusive results are not listed. The calls were made as follows: active = survival T/C of 150% or more; inactive = T/C below 125% in these data.

Tested on: P388 leukemia ip, CD2F1 mice, survival T/C
Test: NCI In Vivo Anticancer Drug Screen. Data for tumor model P388 Leukemia (intraperitoneal) in CD2F1 (CDF1) mice
Conditions: endpoint: median survival time, higher = longer survival
Outline: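 Mice carrying the transplanted tumor received test compound or vehicle. Survival was recorded in each group, and the value is the treated-group measurement divided by that of the vehicle-treated control group.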

[1] = dose: 50.0 mg/kg/injection, schedule: Q01DX009 (ip), vehicle: saline with Tween-80
[2] = dose: 100.0 mg/kg/injection, schedule: Q01DX009 (ip), vehicle: saline with Tween-80
[3] = dose: 200.0 mg/kg/injection, schedule: Q01DX009 (ip), vehicle: saline with Tween-80
[4] = dose: 100.0 mg/kg/injection, schedule: Q01DX005 (ip), vehicle: Klucel (hydroxypropylcellulose) (HPC)
[5] = dose: 200.0 mg/kg/injection, schedule: Q01DX005 (ip), vehicle: Klucel (hydroxypropylcellulose) (HPC)
[6] = dose: 50.0 mg/kg/injection, schedule: Q01DX009 (ip), vehicle: saline
[7] = dose: 100.0 mg/kg/injection, schedule: Q01DX009 (ip), vehicle: saline
[8] = dose: 200.0 mg/kg/injection, schedule: Q01DX009 (ip), vehicle: saline
[9] = dose: 60.0 mg/kg/injection, schedule: Q01DX005 (ip), vehicle: saline with Tween-80
[10] = dose: 120.0 mg/kg/injection, schedule: Q01DX005 (ip), vehicle: saline with Tween-80
[11] = dose: 240.0 mg/kg/injection, schedule: Q01DX005 (ip), vehicle: saline with Tween-80

Measured: T/C

C=C1C(=O)O[C@H]2CC3=CCC[C@H](C)[C@@]3(C)C[C@@H]12
inactive: dose: 2.25 mg/kg/injection, schedule: Q01DX005 (ip), vehicle: Klucel (hydroxypropylcellulose) (HPC) 100 % of control | dose: 4.5 mg/kg/injection, schedule: Q01DX005 (ip), vehicle: Klucel (hydroxypropylcellulose) (HPC) 96 % of control | dose: 9.0 mg/kg/injection, schedule: Q01DX005 (ip), vehicle: Klucel (hydroxypropylcellulose) (HPC) 99 % of control | dose: 18.0 mg/kg/injection, schedule: Q01DX005 (ip), vehicle: Klucel (hydroxypropylcellulose) (HPC) 101 % of control | dose: 36.0 mg/kg/injection, schedule: Q01DX005 (ip), vehicle: Klucel (hydroxypropylcellulose) (HPC) 99 % of control

CC1(C)Nc2cccc3c(N=Nc4ccc(N=Nc5ccccc5)c5ccccc45)ccc(c23)N1
inactive: dose: 25.0 mg/kg/injection, schedule: Q01DX009 (ip), vehicle: saline with Tween-80 120 % of control and 95 % of control and 97 % of control | [1] 101 % of control and 103 % of control and 112 % of control | [2] 104 % of control and 123 % of control and 91 % of control | [3] 94 % of control and 95 % of control

COc1ccc(-c2cc(-c3cc(-c4ccc(OC)cc4)nc(N)n3)nc(N)n2)cc1
inactive: dose: 60.0 mg/kg/injection, schedule: Q01DX005 (ip), vehicle: saline 105 % of control | dose: 120.0 mg/kg/injection, schedule: Q01DX005 (ip), vehicle: saline 102 % of control | dose: 240.0 mg/kg/injection, schedule: Q01DX005 (ip), vehicle: saline 105 % of control

O=CNC(Cc1ccc(O)cc1)C(=O)O (stereo not drawn)
inactive: dose: 12.5 mg/kg/injection, schedule: Q01DX005 (ip), vehicle: Klucel (hydroxypropylcellulose) (HPC) 102 % of control and 105 % of control | dose: 25.0 mg/kg/injection, schedule: Q01DX005 (ip), vehicle: Klucel (hydroxypropylcellulose) (HPC) 100 % of control and 104 % of control | [4] 101 % of control and 107 % of control | [5] 96 % of control

Cc1nn2c(-c3ccccc3)cnnc2c1-c1ccccc1
inactive: dose: 50.0 mg/kg/injection, schedule: Q01DX005 (ip), vehicle: Klucel (hydroxypropylcellulose) (HPC) 101 % of control | [4] 98 % of control | [5] 96 % of control

CC(NC(=O)C(NC(=O)c1ccc[n+](Cc2ccccc2)c1)C(C)C)C(N)=O (stereo not drawn)
inactive: dose: 7.5 mg/kg/injection, schedule: Q01DX005 (ip), vehicle: saline 109 % of control | dose: 15.0 mg/kg/injection, schedule: Q01DX005 (ip), vehicle: saline 104 % of control | dose: 30.0 mg/kg/injection, schedule: Q01DX005 (ip), vehicle: saline 98 % of control

CCN(CC)CCCC(C)NS(=O)(=O)c1cccc2c(N(C)C)cccc12 (stereo not drawn)
inactive: dose: 6.25 mg/kg/injection, schedule: Q01DX009 (ip), vehicle: water 96 % of control | dose: 12.5 mg/kg/injection, schedule: Q01DX009 (ip), vehicle: water 97 % of control | dose: 25.0 mg/kg/injection, schedule: Q01DX009 (ip), vehicle: water 93 % of control | dose: 50.0 mg/kg/injection, schedule: Q01DX009 (ip), vehicle: water 96 % of control | dose: 100.0 mg/kg/injection, schedule: Q01DX009 (ip), vehicle: water 99 % of control

COCCCn1c(-c2cc(OC)c(OC)c(OC)c2)nn2c(=O)c3ccccc3nc2c1=O
inactive: [6] 102 % of control | [7] 107 % of control | [8] 101 % of control

CCCCOc1cc([N+](=O)[O-])ccc1CO
inactive: dose: 100.0 mg/kg/injection, schedule: Q04DX003 (ip), vehicle: saline with Tween-80 100 % of control | dose: 200.0 mg/kg/injection, schedule: Q04DX003 (ip), vehicle: saline with Tween-80 100 % of control | dose: 400.0 mg/kg/injection, schedule: Q04DX003 (ip), vehicle: saline with Tween-80 95 % of control

CNC(=O)Oc1cccc(N=CN(C)C)c1
inactive: dose: 0.93 mg/kg/injection, schedule: Q01DX005 (ip), vehicle: saline 97 % of control | dose: 1.87 mg/kg/injection, schedule: Q01DX005 (ip), vehicle: saline 101 % of control | dose: 3.75 mg/kg/injection, schedule: Q01DX005 (ip), vehicle: saline 95 % of control

C/C(=N\N=C(/N)N1CCCC1)c1ccc2c(c1)Cc1cc(/C(C)=N/N=C(\N)N3CCCC3)ccc1-2
inactive: dose: 25.0 mg/kg/injection, schedule: Q04DX002 (ip), vehicle: saline with Tween-80 98 % of control | dose: 50.0 mg/kg/injection, schedule: Q04DX002 (ip), vehicle: saline with Tween-80 98 % of control

CCC(CC)C[Se][Se]CC(CC)CC
inactive: dose: 6.25 mg/kg/injection, schedule: Q01DX009 (ip), vehicle: Klucel (hydroxypropylcellulose) (HPC) 100 % of control | dose: 12.5 mg/kg/injection, schedule: Q01DX009 (ip), vehicle: Klucel (hydroxypropylcellulose) (HPC) 101 % of control | dose: 25.0 mg/kg/injection, schedule: Q01DX009 (ip), vehicle: Klucel (hydroxypropylcellulose) (HPC) 103 % of control

O=C1OC(CO)C(O)C(O)C1O (stereo not drawn)
inactive: dose: 50.0 mg/kg/injection, schedule: Q01DX005 (ip), vehicle: saline 100 % of control | dose: 100.0 mg/kg/injection, schedule: Q01DX005 (ip), vehicle: saline 93 % of control | dose: 200.0 mg/kg/injection, schedule: Q01DX005 (ip), vehicle: saline 96 % of control

c1ccc2c(c1)oc1c3c(ccc12)NCCC3
inactive: dose: 50.0 mg/kg/injection, schedule: Q01DX005 (ip), vehicle: saline with Tween-80 104 % of control | dose: 100.0 mg/kg/injection, schedule: Q01DX005 (ip), vehicle: saline with Tween-80 99 % of control | dose: 200.0 mg/kg/injection, schedule: Q01DX005 (ip), vehicle: saline with Tween-80 104 % of control

CCOC(=O)C[n+]1ccc2c([nH]c3cc(OC)ccc32)c1C
inactive: [6] 97 % of control | [7] 112 % of control | [8] 110 % of control

Nc1nc2c(C(=O)NCc3cccs3)nnn2c2cccc(Cl)c12
inactive: [9] 96 % of control | [10] 92 % of control | [11] 95 % of control

Cc1cc(C(=O)O)ccc1S(=O)(=O)F
inactive: [9] 101 % of control | [10] 105 % of control

CCCCCCCCCCCCCCCCOc1ccc(C(=O)CC(=O)OC)cc1
inactive: dose: 50.0 mg/kg/injection, schedule: Q01DX009 (ip), vehicle: other 103 % of control | dose: 100.0 mg/kg/injection, schedule: Q01DX009 (ip), vehicle: other 100 % of control | dose: 200.0 mg/kg/injection, schedule: Q01DX009 (ip), vehicle: other 95 % of control | dose: 400.0 mg/kg/injection, schedule: Q01DX009 (ip), vehicle: other 87 % of control

O=c1[nH]c(=O)n2c(c1-c1ccccc1)OC(CBr)C2 (stereo not drawn)
inactive: [1] 98 % of control | [2] 98 % of control | [3] 86 % of control

C=CC(C)(C)/C=C/C=O
inactive: [9] 97 % of control | [10] 92 % of control | [11] 104 % of control

COc1cc(CN)ccc1O
inactive: [1] 103 % of control | [2] 110 % of control | [7] 104 % of control | [3] 103 % of control | [8] 101 % of control | dose: 400.0 mg/kg/injection, schedule: Q01DX009 (ip), vehicle: saline with Tween-80 104 % of control | dose: 400.0 mg/kg/injection, schedule: Q01DX009 (ip), vehicle: saline 104 % of control | dose: 600.0 mg/kg/injection, schedule: Q01DX009 (ip), vehicle: saline 107 % of control
